Common to all, as to format: in vivo
The test system of test [1] is C57B1/6J mice. The test is described as follows: Footpad assay for DTH (footpad swelling). The note with it: oral 50 μg priming dose, challenge with 10 μg immunizing antigen in right foot, swelling after 24 h. Here is the method:
Feeding of these VB12-protein complexed was also capable of stimulating good cellular immunity (as measured by the footpad assay for DTH).
+ Footpad swelling was measured in mm using a microcaliper. All groups
received a 50 μg priming dose of antigen followed by challenge with 10
μg of the immunizing antigen in the right foot and 10 μg of
ovalbumen in the left footpad. Swelling was measured after 24 h.

In test [2] the test system is S. typhimurium. Kind of test: Systemic S. typhimurium infection in mice: survival and clearance. Conditions: for Suvivors (day 10) Number / Suvivors (day 10) Percentage: total dose 1 mg as five doses 12 h apart from day 3, mice fed 1×10^6 S. typhimurium on day 0; for Elimination of systemic S. typhimurium infection / prevention of death (in words): 1 mg total dose.
The test system of test [3] is C57B1/6J mice. Kind of test: Serum antibody response (ELISA titre) after oral feeding of antigen. Conditions: two feedings of antigen (50 μg) on days 1 and 14, reciprocal of antiserum dilution giving ELISA reading 0.5, day 21, mean of 15 mice ±1 SD. As to the method: Female C57B1/6J mice (18-22 g) were obtained from the Animal Resources Centre (Perth, Western Australia). All mice received conjugate preparations in 0.5 ml of 0.1M carbonate/bicarbonate buffer pH9.5 using a specially prepared feeding needle. Mice were fed on days 0 and 14. On day 21 the mice were bled from the orbital plexus. Antibody titres of serum were determined by ELISA using alkaline phosphatase conjugated anti-mouse serum.
The possible potential for VB12 deliver protein molecules, covalently linked to it, from the intestine to the circulation was investigated. The immune response generated to this complex was compared to that generated by the protein fed alone or together with VB12, or to the protein injected intramuscularly.
* The reciprocal of the antiserum dilution that gave an ELISA reading of
0.5 afer 45min. at 37° C. on day 21 after initial feeding. Each
value represents the mean of 15 mice ±1 standard deviation. Mice
received two feedings of antigen (50 μg) on days 1 and 14. On day 21
mice were bled from the retro orbital plaxus and the antibody titres
measured by ELISA as described previously (RussellJones et al., 1984).
Each protein molecule was substituted with an average of 5 VB12 groups.

Test [4] has as its system Mature C57B1/6J female mice. The test is described as follows: Stimulation of ovulation in PMSG-primed mice (corpora haemorrhagica on the ovaries). As to the method: Mature C57B1/6J female mice were treated in the following fashion: On day 0 all mice received a subcutaneous (s.'c) superovulating dose of pregnant mare serum gonadotraphin (PMSG) to stimulate the growth of ovarian follicles. After 48 hours mice received various doses of LHRH, Lys-6-LHRH or saline. On day 3 mice were sacrificed and examined for ovulation. Ovulation was assessed by examining for the presence of corpora haemorrhagica on the ovaries using a stereoscopic microscope at […].

We go through 3 substances from patent US5807832A, “Oral delivery of biologically active substances bound to vitamin B12” (Biotech Australia Pty Limited, priority 1988, dated 1998).

vitamin B12 [VB12]: in test [1], the “Footpad Response (footpad swelling)” value stood at 0 mm. Moreover, in test [2] (oral), the “Suvivors (day 10) Number” value worked out at 0 and the “Suvivors (day 10) Percentage” value is given as 0%. In addition, the “Serum Antibody Response” value in test [3] is listed as less than 4.
For neomycin, the “Elimination of systemic S. typhimurium infection / prevention of death (in words)” value in test [2] (i.m. injection) is listed as “could be saved”; in test [2] (oral), “not able to eliminate systemic infection”. The “Suvivors (day 10) Number” value was found to be 2 in test [2] (i.m.) and 0 in test [2] (oral). In addition, the “Suvivors (day 10) Percentage” value in test [2] (i.m.) is recorded as 100%; in test [2] (oral), 0%.
Take “lutenizing hormone releasing hormone [LHRH]”: the “Number of mice ovulating” value in test [4] (Table 2, PMSG 4 IU day 0, 50 μg iv day 2) was 1/3; in test [4] (Table 2, PMSG 8 IU day 0, 50 μg iv day 2), 1/4; in test [4] (Table 3, PMSG 8 IU day 0, 50 μg/os day 2), 1/5; in test [4] (Table 4, PMSG 8 IU day 0, 6 μg/os day 2), 0/5; in test [4] (Table 4, PMSG 8 IU day 0, 12 μg/os day 2), 0/5; in test [4] (Table 4, PMSG 8 IU day 0, 25 μg/os day 2), 1/5. Besides, in test [4] (Table 4, PMSG 8 IU day 0, 50 μg/os day 2), the “Number of mice ovulating” value is 1/5.
